This note sets out measurements from patent US20120283293A1, “Methods of neuroprotection involving Prostaglandin E2 EP4 (PGE2 EP4) receptor activation” (The Board of Trustees of the Leland Stanford Junior …, priority 2011, published 2012).

This assay deals with PKA activity in BV-2 cells. Put plainly: cAMP dependent protein kinase A (PKA) activity assay in BV-2 cells. In kind it is cell-based, murine. As to conditions: H89 at 5 μM and 10 μM. The protocol: PKA activity was determined using the PKA kinase activity assay kit (Assay designs, Ann Arbor, Mich.). Cells were harvested 3 minutes after stimulation, and ELISA was carried out according to the manufacturer's instructions. Kinase activity was calculated as (sample absorbance—blank absorbance)/μg protein and normalized to the average value of vehicle.
Downstream signaling events for EP4, a […] receptor, were investigated in LPS treated BV-2 cells (see FIG. 3). […] The increase in PKA activity from EP4 receptor signaling was blocked with the PKA inhibitor H89 at doses of 5 μM and 10 μM (FIG. 3B).

Structures are written as SMILES.

In the case of `O=S(=O)(NCCNC/C=C/c1ccc(Br)cc1)c1cccc2cnccc12` [H89], the “AE1-329-mediated increase in PKA activity” value is “blocked”.
